Patent publication US20220298213A1, “IN VIVO ENGINEERED CEREBLON PROTEIN” (Vividion Therapeutics, Inc., priority 2018, published 2022)

Target: T1, CRBN_C287 (Homo sapiens, UniProt Q96SW2)
T1 construct: endogenous in cells; host or cells: cell lysate
Test: CRBN C287 inhibition, probe labeling in lysate (Example 42)
Type: binding
Conditions: for CRBN_C287 inhibition, result in words: CRBN_C287, lysate 1 h; for IC50: TE50, CRBN_C287, lysate 1 h; for inhibition at 500 µM: lysate, 1 h, read-out: % inh @ 500 uM (CRBN_C287, lysate 1 h)
Procedure: The following 96-well sample prep protocol was used for sample preparation.
Cells were resuspended in cold PBS on ice and sonicated with a probe sonicator to achieve lysis. 200 μL of lysate containing 5 mg/ml proteome was treated with 2 μL of 100× compound stock in a 2-mL deep-well plate. The treated lysate was subsequently incubate at 25° C. for 1 hr with shaking at 600 rpm. The treated lysate was further incubated with 2 μL of 10 mM desthiobiotin iodoacetamide probe at 25° C. for 1 hr with shaking at 600 rpm. […] 1.7 mL ice-cold acetone was added to each well and incubated at −20° C. for 2 hr, followed by max speed (4200 rpm) spin for 45 min. Acetone was then decanted and the plates were blotted to remove acetone. The plates were then dried in open air for 20 minutes. After drying, the plates were then covered with foil seal and stored at −80° C. overnight.
The next day, samples were re-suspended in 90 μL of solution of 9M urea, 50 mM ammonium bicarbonate and 10 mM DTT by incubating at 65° C. for 20 min with shaking at 1500 rpm. […] The samples were then incubated at 37° C. for 30 min with shaking at 600 rpm.
ZEBA desalting plates were equilibrated 4 times using 250 μL of 2M urea, 50 mM ammonium bicarbonate solution followed by centrifugation at 1500 rpm for 2 minutes. After equilibration was complete, samples were applied to ZEBA desalting plate and spin at 1500 rpm for 2 min on top of 1 mL 96-well deep-well collection plate to buffer exchange samples. 4 μL of solution containing 25 mM CaCl2 and 0.25 mg/mL trypsin was added to the plate and the plate was then incubated at 37° C. for 2 hrs with shaking at 600 rpm. 300 μL of solution containing 5% high-capacity streptavidin agarose slurry in 25 mM Tris-HCl pH 7.5, 150 mM NaCl, and 0.1% NP-40 then added. The plate was incubated at 25° C. for 2 hrs with shaking at 600 rpm. Samples were transferred to 25 μm filter plate and spin at 1000 rpm for 2 min. Samples were then washed 3 times with 0.75 mL of wash buffer (25 mM Tris-HCl pH 7.5, 150 mM NaCl, and 0.1% NP-40) followed by washing 3 times with 0.75 mL PBS, and then 4 times with 0.75 mL water. After the washing step, samples were eluted into polypropylene 96-well plate by addition of 250 μL of 50% MeCN/water, 0.1% formic acid and allowed to gravity drip for 10 min, followed by centrifugation at 1000 rpm for 2 min. Speedvac was used to dry the plates at about 45° C. for […]. Then the plates were covered with foil seal and stored at −20° C.
Then add 30 μL of 0.1% formic acid solution was added and the plate was covered and incubated at 42° C. for 10 minutes with shaking at 600 rpm. Seal plate was then sealed with a 96-well silicon mat for analysis.

T1 sequence (Q96SW2 whole entry): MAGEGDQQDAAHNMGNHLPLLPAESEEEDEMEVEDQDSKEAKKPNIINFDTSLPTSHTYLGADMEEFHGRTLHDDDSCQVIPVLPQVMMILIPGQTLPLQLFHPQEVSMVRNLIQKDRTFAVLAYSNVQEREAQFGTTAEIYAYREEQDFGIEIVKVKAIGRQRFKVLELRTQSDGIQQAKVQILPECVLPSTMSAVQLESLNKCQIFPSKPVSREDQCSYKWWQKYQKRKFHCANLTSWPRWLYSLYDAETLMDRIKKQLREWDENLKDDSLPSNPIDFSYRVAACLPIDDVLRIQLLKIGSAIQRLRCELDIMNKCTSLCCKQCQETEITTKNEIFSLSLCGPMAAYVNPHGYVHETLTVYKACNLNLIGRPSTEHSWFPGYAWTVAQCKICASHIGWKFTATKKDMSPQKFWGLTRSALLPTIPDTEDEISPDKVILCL

Row | IC50 | inhibition at 500 µM | SMILES | further results
1 | – | – | C=CC(=O)N1CCn2c(nnc2C(F)(F)F)C1 | CRBN_C287 inhibition, result in words: No activity
2 | – | – | C=CC(=O)N1CCC(Oc2ccc(-c3ccc(S(C)(=O)=O)cc3)cc2)CC1 | CRBN_C287 inhibition, result in words: No activity
3 | 4.66 µM | – | C=CC(=O)N1CCC(Oc2cc(C#N)cc(-c3ccccc3OC)c2)C(C)C1 (single isomer, unassigned) [Example 33, 5-((1-acryloyl-3-methylpiperidin-4-yl)oxy)-2′-methoxy-[1,1′-biphenyl]-3-carbonitrile] | –
4 | 8.97 µM | – | C=CC(=O)N1CCC(Oc2cc(C#N)cc(-c3ccccc3OC)c2)C(C)C1 (single isomer, unassigned) [Example 34, 5-((1-acryloyl-3-methylpiperidin-4-yl)oxy)-2′-methoxy-[1,1′-biphenyl]-3-carbonitrile] | –
5 | 9.8 µM | – | C=CC(=O)N1CCC(Oc2cc(C#N)cc(-c3ccccc3OC)c2)C(C)C1 (single isomer, unassigned) [Example 35, 5-((1-acryloyl-3-methylpiperidin-4-yl)oxy)-2′-methoxy-[1,1′-biphenyl]-3-carbonitrile] | –
6 | – | 74.8% | C=CC(=O)N1CCC(Oc2cccc(-c3ccc(F)cc3OC)c2)CC1 [Example 1, 1-(4-((4′-fluoro-2′-methoxy-[1,1′-biphenyl]-3-yl)oxy)piperidin-1-yl)prop-2-en-1-one] | –
7 | – | 59.8% | C=CC(=O)N1CCC(Oc2cccc(-c3ccccc3OCC)c2)CC1 [Example 2] | –
8 | – | 48.9% | C=CC(=O)N1CCC(Oc2cccc(-c3ccccc3O)c2)CC1 [Example 3] | –
9 | – | 64.8% | C=CC(=O)N1CCC(Oc2cccc(-c3ccccc3Cl)c2)CC1 [Example 4] | –
10 | – | 88.5% | C=CC(=O)N1CCC(Oc2cc(Cl)cc(-c3ccccc3OC)c2)CC1 [Example 5] | –
11 | – | 72.2% | C=CC(=O)N1CCC(Oc2cc(Cl)cc(-c3ccccc3)c2)CC1 [Example 6] | –
12 | – | 91.2% | C=CC(=O)N1CCC(Oc2cccc(-c3ccccc3OC)c2)CC1 [Example 7] | –
13 | – | 76.8% | C#CC(=O)N1CCC(Oc2cccc(-c3ccccc3)c2)CC1 [Example 8] | –
14 | – | 88.8% | C#CC(=O)N1CCC(Oc2cccc(-c3ccccc3OC)c2)CC1 [Example 9] | –
15 | – | 52.4% | CN(C)C/C=C/C(=O)N1CCC(Oc2cccc(-c3ccccc3)c2)CC1 [Example 10] | –
16 | – | 92.9% | COc1ccccc1-c1cccc(OC2CCN(C(=O)/C=C/CN(C)C)CC2)c1 [Example 11] | –
17 | – | 87.2% | COc1ccccc1-c1cc(C#N)cc(OC2CCN(C(=O)/C=C/CN3CCOCC3)CC2)c1 [Example 12] | –
18 | – | 81.3% | C=CC(=O)N1CCC(Oc2cc(C#N)cc(-c3ccccc3)c2)CC1 [Example 13] | –
19 | – | 94.5% | C=CC(=O)N1CCC(Oc2cc(C#N)cc(-c3ccccc3OC)c2)CC1 [Example 14] | –
20 | 22.2 µM | – | C=CC(=O)N1CCC(Oc2cc(C#N)cc(-c3ccccc3CC)c2)CC1 [Example 15] | –

Row | IC50 | inhibition at 500 µM | SMILES | further results
21 | 0.12 µM | – | COc1ccccc1-c1cc(C#N)cc(OC2CCN(C(=O)/C(C#N)=C/C(C)C)CC2)c1 [Example 16] | –
22 | – | 60.4% | C=CC(=O)N1CCC(Oc2cccc(-c3ccccc3OC)c2Cl)CC1 [Example 18] | –
23 | – | 68.2% | C=CC(=O)N1CCC(Oc2cccc(-c3ccccc3)c2C#N)CC1 [Example 19] | –
24 | – | 57.6% | C=CC(=O)N1CCC(Oc2cccc(-c3ccccc3OC)c2C#N)CC1 [Example 20] | –
25 | – | 64.6% | C=CC(=O)N1CCC(Oc2cc(-c3ccccc3OC)ccc2C(N)=O)CC1 [Example 21] | –
26 | – | 95.2% | C=CC(=O)N1CCC(Oc2cc(C(N)=O)cc(-c3ccccc3OC)c2)CC1 [Example 22] | –
27 | – | 91.1% | C=CC(=O)N1CCC(Oc2cc(OC)cc(-c3ccccc3)c2)CC1 [Example 23] | –
28 | – | 89.3% | C=CC(=O)N1CCC(Oc2cc(OC)cc(-c3ccccc3OC)c2)CC1 [Example 24] | –
29 | – | 77.4% | C=CC(=O)N1CCC(Oc2cc(C(=O)NC)cc(-c3ccccc3OC)c2)CC1 [Example 26] | –
30 | 7.5 µM | – | C=CC(=O)N1CCC(Oc2cc(-c3ccccc3OC)cnn2)CC1 [Example 27, 1-(4-((5-(2-methoxyphenyl)pyridazin-3-yl)oxy)piperidin-1-yl)prop-2-en-1-one] | –
31 | 80 µM | – | C=CC(=O)N1CCC(Oc2cc(-c3ccccc3OC)cc(C#N)n2)CC1 [Example 28, 6-((1-acryloylpiperidin-4-yl)oxy)-4-(2-methoxyphenyl)picolinonitrile] | –
32 | 1.25 µM | – | C=CC(=O)N1CC[C@H](Oc2cc(C#N)cc(-c3ccccc3OC)c2)[C@@H](F)C1 [Example 29, 5-(((3S,4S)-1-acryloyl-3-fluoropiperidin-4-yl)oxy)-2′-methoxy-[1,1′-biphenyl]-3-carbonitrile] | –
33 | 0.4 µM | – | C=CC(=O)N1CC[C@@H](Oc2cc(C#N)cc(-c3ccccc3OC)c2)[C@H](F)C1 [Example 30, 5-(((3R,4R)-1-acryloyl-3-fluoropiperidin-4-yl)oxy)-2′-methoxy-[1,1′-biphenyl]-3-carbonitrile] | –
34 | 0.29 µM | – | C=CC(=O)N1CC[C@H](Oc2cc(C#N)cc(-c3ccccc3OC)c2)[C@H](F)C1 [Example 31, 5-(((3R,4S)-1-acryloyl-3-fluoropiperidin-4-yl)oxy)-2′-methoxy-[1,1′-biphenyl]-3-carbonitrile] | –
35 | 1.49 µM | – | C=CC(=O)N1CC[C@@H](Oc2cc(C#N)cc(-c3ccccc3OC)c2)[C@@H](F)C1 [Example 32, 5-(((3S,4R)-1-acryloyl-3-fluoropiperidin-4-yl)oxy)-2′-methoxy-[1,1′-biphenyl]-3-carbonitrile] | –
36 | 0.12 µM | – | C=CC(=O)N1CC(Oc2cc(C#N)cc(-c3ccccc3OC)c2)C1 [Example 36, 5-((1-acryloylazetidin-3-yl)oxy)-2′-methoxy-[1,1′-biphenyl]-3-carbonitrile] | –
37 | 31 µM | – | C=CC(=O)N1CCC(Sc2cccc(-c3ccccc3OC)c2)CC1 [Example 37, 1-(4-((2′-methoxy-[1,1′-biphenyl]-3-yl)thio)piperidin-1-yl)prop-2-en-1-one] | –
38 | 2.57 µM | – | C#CCOCCOCCOCCOc1ccc(OC)c(-c2cc(C#N)cc(OC3CCN(C(=O)C=C)CC3)c2)c1 [Example 40, 3-[2-methoxy-5-[2-[2-(2-prop-2-ynoxyethoxy)ethoxy]ethoxy]phenyl]-5-[(1-prop-2-enoyl-4-piperidyl)oxy]benzonitrile] | –
39 | 31 µM | – | C=CC(=O)N1CCC(Oc2cc(OC(F)(F)F)cc(-c3ccccc3OC)c2)CC1 [Example 41, 1-(4-((2′-methoxy-5-(trifluoromethoxy)-[1,1′-biphenyl]-3-yl)oxy)piperidin-1-yl)prop-2-en-1-one] | –

Row | SMILES | IC50 | inhibition at 500 µM | further results
40 | C=CC(=O)N1C2CCC1CC(Oc1cc(C#N)cc(-c3ccccc3OC)c1)C2 [Example 38, 5-(((1R,3s,5S)-8-acryloyl-8-azabicyclo[3.2.1]octan-3-yl)oxy)-2′-methoxy-[1,1′-biphenyl]-3-carbonitrile] | – | 78% | –
41 | C=CC(=O)N1[C@@H]2CC[C@H]1C[C@H](Oc1cc(C(N)=O)cc(-c3ccccc3OC)c1)C2 [Example 39, 5-(((1R,3s,5S)-8-acryloyl-8-azabicyclo[3.2.1]octan-3-yl)oxy)-2′-methoxy-[1,1′-biphenyl]-3-carboxamide] | 53 µM | – | –
